The text below walks through data of publication PMC4613797 (Journal of medicinal chemistry, 2015).

The test system of data set [1] is vitamin D receptor (VDR). Briefly: Lentiviral VDRE luciferase reporter assay in HaCaT cells. It is filed as cell-based, human. Background: A reporter such as luciferase makes a cellular process visible.
A further data set has as its target T1, Mouse CYP27B1 (Mus musculus, UniProt O35084).
T1 sequence (O35084 1-507): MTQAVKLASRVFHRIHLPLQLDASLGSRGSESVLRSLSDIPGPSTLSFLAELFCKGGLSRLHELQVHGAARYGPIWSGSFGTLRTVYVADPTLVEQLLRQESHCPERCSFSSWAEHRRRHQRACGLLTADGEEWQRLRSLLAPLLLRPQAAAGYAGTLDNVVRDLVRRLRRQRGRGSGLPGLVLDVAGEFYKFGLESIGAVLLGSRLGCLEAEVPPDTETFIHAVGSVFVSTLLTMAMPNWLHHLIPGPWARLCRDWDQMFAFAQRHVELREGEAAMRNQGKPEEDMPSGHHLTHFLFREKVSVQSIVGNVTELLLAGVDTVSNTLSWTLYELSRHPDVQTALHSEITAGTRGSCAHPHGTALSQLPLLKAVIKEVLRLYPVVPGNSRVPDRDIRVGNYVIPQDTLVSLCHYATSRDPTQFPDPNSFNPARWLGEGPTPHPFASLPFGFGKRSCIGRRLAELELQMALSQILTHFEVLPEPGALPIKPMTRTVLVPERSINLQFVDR
Briefly: Kinetics of 1α-hydroxylation. It is filed as in vitro ADME. The conditions noted are these: for Km: 1α-hydroxylation by mouse CYP27B1, phospholipid vesicles, 2 min, ±SE of the curve fit.

Data set [2] concerns IFNγ production by mouse splenocytes. Briefly: IFNγ inhibition assay in mouse splenocytes. It is filed as cell-based. Particulars: 100 nM, versus control.
Data set [3] relates to vitamin D receptor (VDR). Briefly: Lentiviral VDRE luciferase reporter assay in Caco-2 cells. It is filed as cell-based.
Another data set deals with SKMEL 188 melanoma cells. The conditions noted are these: SKMEL 188 melanoma cells ref 6; cited from earlier work.
The conditions of data set [4]: mice, up to a dose of 60 µg/kg ref 18, 19; cited from earlier work.
[5] abbreviates: Homo sapiens, 24 h, read-out: VDRE activation (EC50, nM) HaCaT, HaCaT, VDRE-luciferase, 24 h.
Setting [6] is: read-out: VDRE activation (EC50, nM) HaCaT, VDRE-luciferase, 24 h.
Where [7] appears, read: Homo sapiens, Caco-2, 24 h, read-out: VDRE activation (EC50, nM) Caco-2, Caco-2, VDRE-luciferase, 24 h.
The mark [8] stands for this setting: read-out: VDRE activation (EC50, nM) Caco-2, Caco-2, VDRE-luciferase, 24 h.

For orientation: EC50 means the concentration that produces a half-maximal response. On to `C=C1CC[C@H](O)C/C1=C/C=C1\CCC[C@@]2(C)[C@H]1CC[C@@H]2[C@@](C)(O)CC[C@H](O)C(C)C` [Compound 17b, 20S,24S-dihydroxyvitamin D3], for which the EC50 in the data set on vitamin D receptor (VDR) [1] (setting [5]), in the data set on vitamin D receptor (VDR) [1] (setting [6]), with vitamin D receptor (VDR) [3] (setting [7]) and in the data set on vitamin D receptor (VDR) [3] (setting [8]) was above 1000 nM each time. Besides, the Km at Mouse CYP27B1 was 2.49 ± 0.59 (mmol of substrate)/(mol of phospholipid). Further, the “effect on production of IFNγ by splenocytes (in words)” value in data set [2] is reported as “slightly increased production”.
Turning to `C=C1CC[C@H](O)C/C1=C/C=C1\CCC[C@@]2(C)[C@H]1CC[C@@H]2[C@@](C)(O)CC[C@@H](O)C(C)C` [Compound 17a, 20S,24R-dihydroxyvitamin D3], the “inhibiting colony formation, potency compared with 1,25(OH)2D3” value in the data set on SKMEL 188 melanoma cells is listed as “more potent than 1,25(OH)2D3”. For the same molecule, the EC50 in the data set with vitamin D receptor (VDR) [1] (setting [5]), with vitamin D receptor (VDR) [1] (setting [6]), in the data set on vitamin D receptor (VDR) [3] (setting [7]) and in the data set with vitamin D receptor (VDR) [3] (setting [8]) was above 1000 nM in each case. Besides, the Km at Mouse CYP27B1 is 7.99 ± 4.01 (mmol of substrate)/(mol of phospholipid). For the same molecule, the “kcat, fold higher than that for the 24S isomer” value at Mouse CYP27B1 (mouse CYP27B1, versus 20S,24S(OH)2D3) turned out to be 18 fold. Further, the “catalytic efficiency (kcat/Km), fold higher than 20S,24S(OH)2D3” value at Mouse CYP27B1 (mouse CYP27B1, versus 20S,24S(OH)2D3, listed as 20S,24R(OH)2D3) is recorded as 5 fold.
Consider `C=C1CC[C@H](O)C/C1=C/C=C1\CCC[C@@]2(C)[C@H]1CC[C@@H]2[C@@](C)(O)CCCC(C)C` [20S(OH)D3, 20S-hydroxyvitamin D3], for which the calcemic activity result in data set [4] is on record as “noncalcemic”.
